One data set has as its system extrinsic coagulation. The data set can be described thus: Prothrombin time test. In kind it is biochemical. The protocol: (§1) For this, the anticoagulant activity of the laminarin sulphate PS3 obtained in Example 1 was determined as a function of its concentration in comparison with that of heparin in the conventional coagulation, APTT or “activated partial thromboplastin time” tests, the prothombin time test, the so-called “HEPTEST” test and the thrombin time test. The APTT reflects an interaction with the intrinsic coagulation system, while the prothrombin time reflects an interaction with the extrinsic coagulation; the so-called “HEPTEST” test is the conventional test for measurement of the inhibitory activity of heparin with respect to factor Xa, and the thrombin time corresponds to the last stage of coagulation, that is to say the formation of fibrins induced by thrombin.

The next data set has as its system HSV-2. In words: Action on the viral adsorption (treatments A, B, C). In kind it is cell-based, herpes simplex virus 2. Particulars: treatment C (present during and after infection), 72 hours. As to the method:
(§2) To determine whether PS3 has an effect on the viral adsorption, the procedure was as follows.
(§3) Vero cells were seeded at a cell density of 3.5·10^4 cells/well of a 96-well microtitre plate in 100 μl of MEM medium containing 8% FCS 24 hours before the test. The viral suspensions of HSV-1, HSV-1R, HSV-2 and HSV-2R, defined by an MOI of 0.01 ID50/cell for a cell concentration of 350,000 cells/ml, were tested.
(§4) On the day of the test, the cells were subjected to three different treatments designated A, B and C.
(§5) According to treatment A, cells treated with 50 μl of PS3 or comparison product (acyclovir) of a given concentration were infected with 50 μl of one of the viral suspensions identified above for one hour at 4° C.
(§6) The infected cells were then washed with 100 μl of saline buffer in order to remove the PS3 or the reference product as well as the viral particles which had not been adsorbed by the cells.
(§7) After having filled each well with sufficient MEM medium containing 8% FCS to arrive at a volume of 200 μl, the cells were then placed in an oven at 37° C. for 72 hours. […]
(§8) For these 3 treatments, the inhibitory effect of PS3 and of the reference product (expressed in EC50) on the adsorption of the four abovementioned viral strains after 72 hours was evaluated by measurement of the EC50 values in accordance with the method described in Example 3.

Another data set deals with HSV-2R. The description is as above. Format: cell-based, herpes simplex virus 2. As to conditions: treatment C (present during and after infection), 72 hours. The protocol: as §2, §3, §4, §5, §6, §7, §8
In another data set the test system is HSV-1. The data set is described as above. Format: cell-based, herpes simplex virus 1. As to conditions: treatment C (present during and after infection), 72 hours. As to the method: as §2, §3, §4, §5, §6, §7, §8
Another data set relates to HSV-1R. The data set is described as above. Format: cell-based, herpes simplex virus 1. As to conditions: treatment C (present during and after infection), 72 hours. As to the method:
as §2, §3, §4, §5, §6, §7, §8

Data set [1] relates to white rabbits of the New Zealand breed. In words: Ocular irritation test. Format: in vivo. As to the method:
(§9) This study was carried out on white rabbits of the New Zealand breed and on rats of the Sprague Dawley breed.
(§10) The white rabbits were subjected on the one hand to the ocular irritation test and on the other hand to the primary skin irritation test.
(§11) observing the OECD Guidelines no. 404 and 405 of 24 Feb. 1987 to the extent that they are studies carried out on white rabbits, and OECD Guidelines no. 401 and 402 (1987) as well as EEC Directive B-I 92/69 (1992) to the extent that they are studies carried out on Sprague Dawley rats.

For data set [2], the system named is factor Xa. The data set can be described thus: HEPTEST coagulation test. Format: biochemical. Particulars: in contrast to heparin. The protocol: For this, the anticoagulant activity of the laminarin sulphate PS3 obtained in Example 1 was determined as a function of its concentration in comparison with that of heparin in the conventional coagulation, APTT or “activated partial thromboplastin time” tests, the prothombin time test, the so-called “HEPTEST” test and the thrombin time test. The APTT reflects an interaction with the intrinsic coagulation system, while the prothrombin time reflects an interaction with the extrinsic coagulation; the so-called “HEPTEST” test is the conventional test for measurement of the inhibitory activity of heparin with respect to factor Xa, and the thrombin time corresponds to the last stage of coagulation, that is to say the formation of fibrins induced by thrombin. […] The specific activity (IU/mg) in the APTT represents 30% of the heparin activity, and in the case of the thrombin time 60%. To prevent coagulation totally, it was necessary to apply a concentration 4 times higher in the case of the APTT and a concentration 20 times higher in the case of the thrombin time.

In data set [3] the test system is white rabbits of the New Zealand breed. In words: Primary skin irritation test. In kind it is in vivo. As to the method: as §9, §10, §11
The test system of data set [4] is intrinsic coagulation system. The data set can be described thus: APTT (activated partial thromboplastin time) test. In kind it is biochemical. Particulars: relative to heparin. The protocol: as §1
Data set [5] has as its system factor Xa. In words: Specific anti-factor Xa test using chromogenic substrates. In kind it is biochemical. From the text: (§12) The effect in the case of the thrombin time can be considered as being due to an inhibition of thrombin dependent on heparin cofactor II. On the basis of on the one hand the lower specific activity and on the other hand the profile dependent on the concentration and also on the other hand other investigations relating to the action mechanism, it is possible to consider that in the case of the laminarin sulphate PS3, the risk of bleeding is considerably lower than in the case of heparin.

The next data set deals with thrombin. In words: Specific antithrombin test using chromogenic substrates. Format: biochemical.
Text: as §12

Data set [6] relates to formation of fibrins induced by thrombin. In words: Thrombin time test. In kind it is biochemical. Particulars: relative to heparin. The protocol:
as §1

sulphated laminarin [PS3]: the “Anticoagulant effect on the prothrombin time” value in the data set on extrinsic coagulation is given as “no pronounced anticoagulant effect”. The half-maximal effective concentration (EC50) in the data set on HSV-2 stood at 0.24 µg/mL; in the data set on HSV-2R, 0.30 µg/mL; with HSV-1, 3.84 µg/mL; in the data set on HSV-1R, 5.54 µg/mL. Besides, the Ocular irritation entry in data set [1] is given as “slightly irritating action”. Besides, in the data set with factor Xa [2], the “Activity in the HEPTEST test compared with heparin” value is given as “more than 20 times weaker”. The Primary skin irritation result in data set [3] is given as “non-irritating action”. The “Concentration needed to prevent coagulation totally, APTT” value in [4] came to 4 times higher. Further, the “Specific activity (IU/mg) in the APTT as share of the heparin activity” value in data set [4] was 30%. For the same substance, the “anti-factor Xa activity dependent on the antithrombin” value in the data set on factor Xa [5] was “neither a significant anti-factor Xa activity dependent on the antithrombin”. In addition, the antithrombin activity result in the data set on thrombin is on record as “nor an antithrombin activity”. Also, the “Concentration needed to prevent coagulation totally, thrombin time” value in data set [6] turned out to be 20 times higher. Further, in data set [6], the “Specific activity (IU/mg) in the thrombin time as share of the heparin activity” value is recorded as 60%.

One may read the EC50 as the concentration giving half of the maximal effect. Higher therefore signals lower potency in that assay.

For the origin of these results see patent US8288363B2, “Medicaments for anti-herpes virus treatments” (ASE & BIO, priority 2006, dated 2012).
